Measurements reported in patent publication US7629156B2, “Ethanol production in fermentation of mixed sugars containing xylose” (E.I. du Pont de Nemours and Company, priority 2006, dated 2009).

Legend:
Type in all cases: cell-based, Zymomonas mobilis
ZW658 strain [1] = assay: 1-liter fermentor, ZW658 on glucose and xylose in the presence of sorbitol and acetate; conditions: 5.8 g/L acetate, 10 mM sorbitol
Method: (§1) Approximately 1 ml of well mixed sample was obtained from flask or fermentor. First the sample absorbance was measured directly with a spectrophotometer (Amersham Biosciences Ultrospec 3300pro, GE Healthcare, Piscataway, N.J., USA). If the reading was lower than 0.6 unit, no dilution was needed. If the reading was higher than 0.6 unit, the sample was diluted with culture medium until the actual reading was in the range of 0.1 to 0.6 unit. The original OD was calculated from the dilution ratio and the actual reading.
(§2) The analysis of sugars, acetate, ethanol, and other by-products was done with an Agilent 1100 series HPLC and Agilent ChemStation software for LC 3D. The column was BioRad Aminex HPX-87H(HPLC Organic Analysis Column 125-0140) with BioRad Micro-Guard Cartridge Cation-H (125-0129). The operating conditions were:
(§3) Glycerol stock of seed frozen at −80° C. was thawed, then inoculated into sterile culture tubes with mixture of 60 g/L glucose, 20 g/L xylose, 10 g/L yeast extract (YE), 10 g/L KH2PO4, 2 g/L (NH4)2SO4, and 1 g/L MgSO4. Initial pH was adjusted to 5.5 with 4 N KOH. This revival culture was grown statically overnight at 37° C. It was transferred into shake flasks with 75 g/L glucose, 25 g/L xylose, 10 g/L yeast extract (YE), 10 g/L KH2PO4, 2 g/L (NH4)2SO4, and 1 g/L MgSO4. Initial pH was adjusted to 5.5 with 4 N KOH. Growth was monitored by measuring OD600. When the OD reached approximately 5, a certain volume of the seed was withdrawn into a sterile syringe for inoculation.
In a sterilized 1-liter fermentor (BIOSTAT® B-DCU system, Sartorius BBI System Inc., Bethlehem, Pa., USA), 50 ml of ZW658 strain seed culture at OD600 of approximately 5 was inoculated into 450 ml of aqueous solution containing sugars and medium. The final mixed broth contained 99.0 g/L glucose, 82.7 g/L xylose, 5.8 g/L acetate (in the form of potassium acetate), 10 g/L yeast extract (YE), 2 g/L KH2PO4, and 10 mM sorbitol. pH was adjusted to 5.5 with 4 N KOH solution. Mixing speed was set at 150 rpm. Fermentation was conducted at 33° C. and pH 5.5. Samples were taken periodically. Samples were filtered through 0.22 micron filters, and the filtrates were analyzed by HPLC as described in General Methods for compounds including glucose, xylose, ethanol, and acetate. Samples were also diluted with medium (as described in General Methods) and the OD600 was measured to monitor cell growth.

ZW658 strain [2] = assay: Flask fermentation of ZW658 on glucose and xylose with acetate and various polyols; conditions: 10 mM polyol, 3 g/L acetate
Method: as §1, §2, §3
In five sterilized 125 ml Erlenmeyer culture flasks (Cat. No. 30180-036, VWR International, USA), 10 ml of ZW658 strain seed culture at OD600 of approximately 5 was inoculated into each flask with 100 ml of aqueous solution containing 100 g/L glucose, 80 g/L xylose, 3 g/L acetate, 10 g/L yeast extract (YE), 2 g/L KH2PO4, 1 g/L MgSO4.7H2O, and 4 g/L KHCO3, and 10 mM of the following polyols: erythritol, sorbitol, mannitol, maltitol, or lactitol; or 5 mM sorbitol plus 5 mM maltitol, or 5 mM sorbitol plus 5 mM lactitol. After inoculation, the total sugar concentration was about 160 g/L due to dilution by the seed culture. Initial pH was adjusted to 5.5 with 4 N H3PO4 solution. Mixing speed was set at 150 rpm. Fermentation was conducted at 33° C. and pH was not controlled. Samples were taken periodically. Samples were filtered through 0.22 micron filters, and the filtrates were analyzed by HPLC as described in General Methods for compounds including glucose, xylose, ethanol, and acetate. Samples were diluted with medium (as described in General Methods) and the OD600 was measured to monitor cell growth.

ZW658 strain [3] = assay: 1-liter fermentor, ZW658 on high concentration glucose and xylose with sorbitol or glutamate
Method: as §1, §2, §3
In a sterilized 1-liter fermentor (BIOSTAT® B-DCU system, Sartorius BBI System Inc., Bethlehem, Pa., USA), 50 ml of ZW658 strain seed culture at Optical Density of approximately 5 (measured at 600 nm) was inoculated into 450 ml of aqueous solution containing sugars and medium. The final mixed broth contained 100 g/L glucose, 85.1 g/L xylose, 10 g/L yeast extract (YE), 2 g/L KH2PO4, and 10 mM sorbitol. pH was adjusted to 5.5 with 4 N KOH solution. Mixing speed was set at 150 rpm. Fermentation was conducted at 33° C. and pH 5.5. Samples were taken periodically. Samples were filtered through 0.22 micron filters, and the filtrates were analyzed by HPLC as described in General Methods for compounds including glucose, xylose, ethanol, and acetate. Samples were also diluted with medium (as described in General Methods) and the OD600 was measured to monitor cell growth. […] The by-product xylitol concentration was 0.67 g/L at 29 hr, and increased to 0.95 g/L at 64 hr.
In a sterilized 1-liter fermentor (BIOSTAT® B-DCU system, Sartorius BBI System Inc., Bethlehem, Pa., USA), 50 ml of ZW658 strain seed culture at OD600 of approximately 5 was inoculated into 450 ml of aqueous solution containing sugars and medium. The final mixed broth contained 98.0 g/L glucose, 81.2 g/L xylose, 10 g/L yeast extract (YE), 2 g/L KH2PO4, and 10 mM potassium glutamate. pH was adjusted to 5.5 with 4 N KOH solution. Mixing speed was set at 150 rpm. Fermentation was conducted at 33° C. and pH 5.5. Samples were taken periodically. Samples were filtered through 0.22 micron filters, and the filtrates were analyzed by HPLC as described in General Methods for compounds including glucose, xylose, xylitol, ethanol, and acetic acid. Samples were also diluted with medium (as described in General Methods) and the OD600 was measured to monitor cell growth. […] However, xylose was not well-utilized, cell growth and ethanol production were reduced as compared to that in the presence of sorbitol (Example 4), and xylitol production increased.

[4] = after 29 hours, 100 g/L glucose, 85.1 g/L xylose, 10 mM sorbitol, 33° C., pH 5.5

OC[C@@H](O)[C@@H](O)[C@H](O)[C@@H](O)CO [sorbitol]
by product xylitol concentration (ZW658 strain [1]; after 63.75 hours (stationary phase)): 3.55 g/L | OD600 cells grew to (ZW658 strain [1]; after 63.75 hours): 6.4 | ethanol concentration (ZW658 strain [1]; after 63.75 hours): 70.0 g/L | xylose concentration (ZW658 strain [1]; after 63.75 hours): 29.6 g/L | glucose concentration (ZW658 strain [1]; after 63.75 hours, 99.0 g/L glucose, 82.7 g/L xylose, 33° C., pH 5.5): 0 g/L | ethanol production (ZW658 strain [2]): ethanol production was also better | xylose utilization (ZW658 strain [2]): More xylose was utilized | OD600 (ZW658 strain [2]; after 32 hours, total sugar about 160 g/L): 7.88 | OD600 cells grew to (ZW658 strain [3]; 100 g/L glucose, 85.1 g/L xylose, 10 mM sorbitol, 33° C., pH 5.5): 13 | reduction of xylitol with addition of sorbitol (ZW658 strain [3]; Examples 4 and 5, with vs without sorbitol): about 3 fold | ethanol concentration (ZW658 strain [3]; [4]): 83.9 g/L | glucose concentration (ZW658 strain [3]; [4]): 0 g/L | xylose concentration (ZW658 strain [3]; [4]): 2.08 g/L | by-product xylitol concentration (ZW658 strain [3]; at 29 hr, 10 mM sorbitol): 0.67 g/L | by-product xylitol concentration (ZW658 strain [3]; at 64 hr, 10 mM sorbitol): 0.95 g/L | time to complete utilization of 85 g/L xylose (ZW658 strain [3]; sugars mixture with 100 g/L glucose, no acetate, in the presence of sorbitol): ≤ 30 h | effect on growth (ZW658 strain [3]; with vs without 10 mM sorbitol): doubled the growth | effect on lag time (ZW658 strain [3]; with vs without 10 mM sorbitol): significantly reduced the lag time
